The results in this text go back to patent US20250129078A1, “ERBB2 INHIBITORS” (Cogent Biosciences, Inc., priority 2023, published 2025).

Assay [1] deals with ErbB2 V777L (Homo sapiens (Human), UniProt P04626, V777L). Briefly: ErbB enzyme assay (CisBio HTRF-KinEASE-TK), ErbB2 V777L. Type of assay: biochemical. As for the experimental part: In vitro enzyme assays based on CisBio HTRF-KinEASE-TK technology were used to determine compound potencies. […] After another 1 h incubation at ambient temperature, the extent of substrate phosphorylation was determined using a PerkinElmer EnVision multimode plate reader via time-resolved fluorescence dual wavelength detection. The percent of control (POC) was calculated using the ratio of emission at […] to the emission at 620 nm. One hundred POC was determined using DMSO only controls (no test compounds present) and zero POC was determined using pre-quenched controls reactions. A 4-parameter logistic equation was fit to the POC values as a function of the test compound concentration and the IC50 value was determined as the point where the curve crossed 50 POC.
On the technique in general: In TR-FRET formats the signal depends on donor and acceptor labels being close together.

Assay [2] concerns the target EGFR WT (Homo sapiens (Human), UniProt P00533). As to the kind of experiment: ErbB enzyme assay (CisBio HTRF-KinEASE-TK), EGFR WT. The class given is biochemical. Particulars: ATP at Km (25 μM), 1 h incubation. In outline: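 HTRF KinEASE-TK kinase assay, 1 h at ambient temperature with three-fold serial compound dilutions, then 1 h detection with Sa-XL665/TK-Ab-Cryptate. IC50 is the 50 POC point of a 4-parameter logistic fit.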

Where two headings read alike, the source gives them in different places. Where only a bound is given, the exact number is not on record here.

Chain of ErbB2 V777L (P04626 23-1255 V777L): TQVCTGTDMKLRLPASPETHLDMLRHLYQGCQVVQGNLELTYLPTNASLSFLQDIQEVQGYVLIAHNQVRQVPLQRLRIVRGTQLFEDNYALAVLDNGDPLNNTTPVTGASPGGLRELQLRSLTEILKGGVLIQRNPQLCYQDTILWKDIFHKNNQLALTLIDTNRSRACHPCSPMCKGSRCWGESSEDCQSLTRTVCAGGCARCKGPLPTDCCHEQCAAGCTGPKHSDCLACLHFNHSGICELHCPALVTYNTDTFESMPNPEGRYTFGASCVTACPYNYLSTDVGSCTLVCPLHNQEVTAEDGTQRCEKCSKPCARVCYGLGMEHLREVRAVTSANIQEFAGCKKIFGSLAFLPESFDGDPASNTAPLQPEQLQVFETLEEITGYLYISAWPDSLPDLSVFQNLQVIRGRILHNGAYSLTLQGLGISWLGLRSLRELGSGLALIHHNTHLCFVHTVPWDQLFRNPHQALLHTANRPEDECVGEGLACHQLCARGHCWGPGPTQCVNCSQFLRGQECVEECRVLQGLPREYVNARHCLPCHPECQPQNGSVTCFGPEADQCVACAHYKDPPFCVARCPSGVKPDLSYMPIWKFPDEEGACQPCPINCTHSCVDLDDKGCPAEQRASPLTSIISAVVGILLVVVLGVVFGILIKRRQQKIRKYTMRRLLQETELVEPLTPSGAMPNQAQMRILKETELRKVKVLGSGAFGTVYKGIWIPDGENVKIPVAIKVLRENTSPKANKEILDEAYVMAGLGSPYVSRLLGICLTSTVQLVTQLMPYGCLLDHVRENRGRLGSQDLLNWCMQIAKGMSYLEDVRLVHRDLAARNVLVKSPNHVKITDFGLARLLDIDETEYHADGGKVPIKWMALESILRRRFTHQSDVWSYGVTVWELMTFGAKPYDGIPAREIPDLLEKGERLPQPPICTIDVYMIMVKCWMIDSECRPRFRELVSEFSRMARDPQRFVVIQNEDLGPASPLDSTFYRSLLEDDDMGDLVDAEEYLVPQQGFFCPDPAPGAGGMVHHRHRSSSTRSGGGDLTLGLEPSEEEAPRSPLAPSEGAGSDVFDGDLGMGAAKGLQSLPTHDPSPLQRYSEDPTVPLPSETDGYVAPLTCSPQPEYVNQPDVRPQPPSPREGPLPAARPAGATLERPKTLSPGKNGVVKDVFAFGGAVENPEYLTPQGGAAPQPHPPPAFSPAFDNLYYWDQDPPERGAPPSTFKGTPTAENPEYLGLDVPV
Chain of EGFR WT (P00533 25-1210): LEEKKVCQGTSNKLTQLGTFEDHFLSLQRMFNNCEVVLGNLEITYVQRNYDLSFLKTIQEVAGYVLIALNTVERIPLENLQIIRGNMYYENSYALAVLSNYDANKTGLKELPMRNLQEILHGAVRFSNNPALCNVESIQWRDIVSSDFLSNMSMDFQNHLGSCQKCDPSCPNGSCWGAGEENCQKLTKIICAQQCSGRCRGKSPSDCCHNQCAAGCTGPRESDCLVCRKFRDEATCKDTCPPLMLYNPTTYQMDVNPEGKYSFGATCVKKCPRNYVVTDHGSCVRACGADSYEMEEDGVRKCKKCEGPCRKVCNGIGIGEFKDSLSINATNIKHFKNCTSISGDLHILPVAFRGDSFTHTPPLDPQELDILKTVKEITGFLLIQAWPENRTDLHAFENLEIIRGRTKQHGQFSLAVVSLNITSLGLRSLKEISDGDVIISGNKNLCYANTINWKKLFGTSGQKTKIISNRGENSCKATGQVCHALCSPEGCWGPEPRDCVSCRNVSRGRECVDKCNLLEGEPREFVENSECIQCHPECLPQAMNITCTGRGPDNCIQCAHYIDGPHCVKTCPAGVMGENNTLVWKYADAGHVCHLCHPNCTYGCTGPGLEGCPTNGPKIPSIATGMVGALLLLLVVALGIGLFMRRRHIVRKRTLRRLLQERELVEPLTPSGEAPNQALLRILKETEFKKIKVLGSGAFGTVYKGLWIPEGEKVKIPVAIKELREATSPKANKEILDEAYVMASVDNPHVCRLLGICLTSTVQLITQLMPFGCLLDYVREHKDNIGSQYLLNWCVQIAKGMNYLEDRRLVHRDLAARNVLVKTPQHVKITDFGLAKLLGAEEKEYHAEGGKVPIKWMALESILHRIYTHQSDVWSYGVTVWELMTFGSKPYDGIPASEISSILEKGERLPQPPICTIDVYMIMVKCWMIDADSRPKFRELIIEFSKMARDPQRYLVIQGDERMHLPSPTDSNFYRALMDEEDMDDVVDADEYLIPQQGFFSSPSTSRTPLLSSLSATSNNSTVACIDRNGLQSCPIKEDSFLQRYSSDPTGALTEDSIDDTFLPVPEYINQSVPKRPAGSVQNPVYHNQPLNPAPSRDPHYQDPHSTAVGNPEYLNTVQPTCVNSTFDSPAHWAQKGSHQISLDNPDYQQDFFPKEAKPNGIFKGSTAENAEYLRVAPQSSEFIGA

Regarding `C=CC(=O)N1CCN(c2ncc3ncnc(Nc4ccc(Oc5ccc6c(c5)nnn6C)c(C)c4)c3n2)CC[C@H]1C` [Compound 152, (R)-1-(7-methyl-4-(8-((3-methyl-4-((1-methyl-1H-benzo[d][1,2,3]triazol-5-yl)oxy)phenyl)amino)pyrimido[5,4-d]pyrimidin-2-y1)-1,4-diazepan-1-yl)prop-2-en-1-one], the IC50 in assay [1] was 0.5 to 1 µM; in assay [2] it was ≥ 1 µM.
In the same order, the values of `C=CC(=O)N[C@]1(C)CCN(c2ccc3ncnc(Nc4ccc(Oc5ccc6c(c5)nnn6C)c(C)c4F)c3n2)C1` [Compound 270, (R)-N-(1-(4-((2-fluoro-3-methyl-4-((1-methyl-1H-benzo[d][1,2,3]triazol-5-yl)oxy)phenyl)amino)pyrido[3,2-d]pyrimidin-6-yl)-3-methylpyrrolidin-3-yl)acrylamide] are 0.05 to 0.1 µM and 0.1 to 0.5 µM.
For the compound `C=CC(=O)N1CCCN(c2ccc3ncnc(Nc4ccc(Oc5ccc6c(c5)nnn6C)c(C)c4)c3n2)CC1` [Compound 308, 1-(4-(4-((3-methyl-4-((1-methyl-1H-benzo[d][1,2,3]triazol-5-yl)oxy)phenyl)amino)pyrido[3,2-d]pyrimidin-6-yl)-1,4-diazepan-1-yl)prop-2-en-1-one], the IC50 in assay [1] lay in the range of 0.1 to 0.5 µM; in assay [2] it was 0.5 to 1 µM.
The like results for `C=CC(=O)N1CCN(c2ncc3ncnc(Nc4ccc(Oc5cc6nnn(C)c6cn5)c(C)c4)c3n2)CC1` [Compound 132, 1-(4-(8-((3-methyl-4-((3-methyl-3H-[1,2,3]triazolo[4,5-c]pyridin-6-yl)oxy)phenyl)amino)pyrimido[5,4-d]pyrimidin-2-yl)piperazin-1-yl)prop-2-en-1-one] were, in that order, 0.1 to 0.5 µM and 0.1 to 0.5 µM.
In the same order, the values of `C=CC(=O)N1CCN(c2ncc3ncnc(Nc4ccc(Oc5cc6nnn(C)c6c(F)c5C)c(C)c4)c3n2)CC1` [Compound 137, 1-(4-(8-((4-((7-fluoro-1,6-dimethyl-1H-benzo[d][1,2,3]triazol-5-yl)oxy)-3-methylphenyl)amino)pyrimido[5,4-d]pyrimidin-2-yl)piperazin-1-yl)prop-2-en-1-one] are 0.1 to 0.5 µM and 0.1 to 0.5 µM.
In the same order, the values of `C=C(COC)C(=O)N1CC(F)(F)C12CN(c1ncc3ncnc(Nc4ccc(Oc5ccc6c(c5)nnn6C)c(C)c4)c3n1)C2` [Compound 214, 1-(3,3-difluoro-6-(8-((3-methyl-4-((1-methyl-1H-benzo[d][1,2,3]triazol-5-yl)oxy)phenyl)amino)pyrimido [5,4-d]pyrimidin-2-yl)-1,6-diazaspiro[3.3]heptan-1-yl)-2-(methoxymethyl) prop-2-en-1-one] are 0.1 to 0.5 µM and 0.5 to 1 µM.
As to `C=CC(=O)N[C@@H]1CCCN(c2ccc3ncnc(Nc4ccc(Oc5ccc6c(c5)nnn6C)c(C)c4F)c3n2)C1` [Compound 260, (R)-N-(1-(4-((2-fluoro-3-methyl-4-((1-methyl-1H-benzo[d][1,2,3]triazol-5-yl)oxy)phenyl)amino)pyrido[3,2-d]pyrimidin-6-yl)piperidin-3-yl)acrylamide], the IC50 in assay [1] and in assay [2] was 0.1 to 0.5 µM in each case.
With `C=CC(=O)N1CCC[C@@H](N(C)c2ncc3ncnc(Nc4ccc(Oc5ccc6c(c5)nnn6C)c(C)c4)c3n2)C1` [Compound 223, (R)-1-(3-(methyl(8-((3-methyl-4-((1-methyl-1H-benzo[d][1,2,3]triazol-5-yl)oxy)phenyl)amino)pyrimido[5,4-d]pyrimidin-2-yl)amino)piperidin-1-yl)prop-2-en-1-one], the figures for the IC50 in assay [1] and in assay [2] were 0.1 to 0.5 µM and 0.5 to 1 µM, respectively.
In the same order, the values of `C=CC(=O)N1CCN(c2ccc3ncnc(Nc4cc(C)c(Oc5ccc6c(c5)nnn6C)cc4OC(F)(F)F)c3n2)CC1` [Compound 312, 1-(4-(4-((5-methyl-4-((1-methyl-1H-benzo[d][1,2,3]triazol-5-yl)oxy)-2-(trifluoromethoxy)phenyl)amino)py-rido[3,2-d]pyrimidin-6-yl)piperazin-1-yl)prop-2-en-1-one] are 0.1 to 0.5 µM and 0.1 to 0.5 µM.
For `C=CC(=O)N[C@@H]1CCCN(c2ccc3ncnc(Nc4ccc(Oc5ccc6c(c5)nnn6C)c(C)c4F)c3n2)[C@H]1C` (single isomer, unassigned) [Compound 349], the concentration for half-maximal inhibition (IC50) in assay [1] is 0.05 to 0.1 µM; in assay [2], 0.1 to 0.5 µM.
The like results for `C=CC(=O)N1CCN(c2ncc3ncnc(Nc4ccc(Oc5ccc6c(nnn6C)c5F)c(C)c4)c3n2)CC1` [Compound 191, 1-(4-(8-((4-((4-fluoro-1-methyl-1H-benzo[d][1,2,3]triazol-5-yl)oxy)-3-methylphenyl)amino)pyrimido[5,4-d]pyrimidin-2-yl)piperazin-1-yl)prop-2-en-1-one] were, in that order, 0.05 to 0.1 µM and 0.05 to 0.1 µM.
In the same order, the values of `C=CC(=O)N1CCN(c2ccc3ncnc(Nc4ccc(Oc5ccc6c(c5)nnn6C)c(C)c4)c3c2F)CC1` [Compound 104, 1-(4-(5-fluoro-4-((3-methyl-4-((1-methyl-1H-benzo[d][1,2,3]triazol-5-yl)oxy)phenyl)amino)quinazolin-6-yl)piperazin-1-yl)prop-2-en-1-one] are 0.1 to 0.5 µM and 0.1 to 0.5 µM.
`C=CC(=O)N(C)C1CCN(c2ncc3ncnc(Nc4ccc(Oc5ccc6c(c5)nnn6C)c(C)c4F)c3n2)C1` (centres unmarked) [Compound 9, N-(1-(8-((2-fluoro-3-methyl-4-((1-methyl-1H-benzo[d][1,2,3]triazol-5-yl)oxy)phenyl)amino)pyrimido [5,4-d]pyrimidin-2-yl)pyrrolidin-3-y1)-N-methylacrylamide]: the IC50 was 0.1 to 0.5 µM in assay [1] and 0.5 to 1 µM in assay [2].
With `C=CC(=O)N1CCN(c2ncc3ncnc(Nc4ccc(Oc5ccc6c(c5)nnn6C)cc4F)c3n2)CC1` [Compound 22, 1-(4-(8-((2-fluoro-4-((1-methyl-1H-benzo[d][1,2,3]triazol-5-yl)oxy)phenyl)amino)pyrimido[5,4-d]pyrimidin-2-yl)piperazin-1-yl)prop-2-en-1-one], the IC50 in assay [1] and in assay [2] was 0.1 to 0.5 µM in each case.
Consider `C=CC(=O)N1CCN(c2ncc3ncnc(Nc4ccc(Oc5cnc6c(c5)ncn6C)c(C)c4F)c3n2)C[C@H]1C` [Compound 158, (R)-1-(4-(8-((2-fluoro-3-methyl-4-((3-methyl-3H-imidazo[4,5-b]pyridin-6-yl)oxy)phenyl)amino)pyrimido[5,4-d]pyrimidin-2-y1)-2-methylpiperazin-1-yl)prop-2-en-1-one], for which the 50% inhibitory concentration (IC50) in assay [1] and in assay [2] was 0.1 to 0.5 µM throughout.
As to `C/C=C/C(=O)N1CCN(c2ncc3ncnc(Nc4ccc(Oc5ccc6c(c5)nnn6C)c(C)c4)c3n2)CC1` [Compound 34, (E)-1-(4-(8-((3-methyl-4-((1-methyl-1H-benzo[d][1,2,3]triazol-5-yl)oxy)phenyl)amino)pyrimido [5,4-d]pyrimidin-2-yl)piperazin-1-yl)but-2-en-1-one], the figures for the 50% inhibitory concentration (IC50) in assay [1] and in assay [2] were 0.1 to 0.5 µM and ≥ 1 µM, respectively.
The like results for `C=CC(=O)N1CCN(c2ncc3ncnc(Nc4c(F)cc(Oc5ccc6c(c5)nnn6C)c(F)c4F)c3n2)CC1` [Compound 19, 1-(4-(8-((2,3,6-trifluoro-4-((1-methyl-1H-benzo[d][1,2,3]triazol-5-yl)oxy)phenyl)amino)pyrimido [5,4-d]pyrimidin-2-yl)piperazin-1-yl)prop-2-en-1-one] were, in that order, 0.1 to 0.5 µM and 0.1 to 0.5 µM.
In the same order, the values of `C=CC(=O)N(C)[C@H]1CCCN(c2ncc3ncnc(Nc4ccc(Oc5ccc6c(c5)nnn6C)c(C)c4)c3n2)C1` [Compound 127, (S)-N-methyl-N-(1-(8-((3-methyl-4-((1-methyl-1H-benzo[d][1,2,3]triazol-5-yl)oxy)phenyl)amino)pyrimido[5,4-d]pyrimidin-2-y1)piperidin-3-yl)acrylamide] are 0.1 to 0.5 µM and 0.5 to 1 µM.
The like results for `C=CC(=O)N1C2CCC1CN(c1ncc3ncnc(Nc4ccc(Oc5cnc6c(c5)ncn6C)c(C)c4)c3n1)C2` [Compound 134, 1-(3-(8-((3-methyl-4-((3-methyl-3H-imidazo[4,5-b]pyridin-6-yl)oxy)phenyl)amino)pyrimido[5,4-d]pyrimidin-2-yl)-3,8-diazabicyclo[3.2.1]octan-8-yl)prop-2-en-1-one] were, in that order, 0.05 to 0.1 µM and 0.1 to 0.5 µM.
In the case of `C=CC(=O)N1CCCN(c2ncc3ncnc(Nc4ccc(Oc5cc(F)c6c(c5)ncn6C)c(C)c4F)c3n2)CC1` [Compound 112, 1-(4-(8-((2-fluoro-4-((7-fluoro-1-methyl-1H-benzo[d]imidazol-5-yl)oxy)-3-methylphenyl)amino)pyrimido[5,4-d]pyrimidin-2-yl)-1,4-diazepan-1-yl)prop-2-en-1-one], the IC50 in assay [1] is 0.05 to 0.1 µM; in assay [2], < 0.05 µM.
With `C=CC(=O)N1CCN(c2ccc3ncnc(Nc4cc(C)c(Oc5ccc6c(c5)nnn6C)cc4OC)c3n2)C[C@H]1C` [Compound 316, (R)-1-(4-(4-((2-methoxy-5-methyl-4-((1-methyl-1H-benzo[d][1,2,3]triazol-5-yl)oxy)phenyl)amino)pyrido[3,2-d]pyrimidin-6-y1)-2-methylpiperazin-1-yl)prop-2-en-1-one], the IC50 in assay [1] (ErbB2 V777L enzyme, ATP at Km (110 μM), 1 h incubation) lay within 0.05 to 0.1 µM; in assay [2], 0.1 to 0.5 µM.
In the case of `C=CC(=O)N(C)C1CN(c2ncc3ncnc(Nc4ccc(Oc5ccc6c(c5)nnn6C)c(C)c4F)c3n2)C1` [Compound 28, N-(1-(8-((2-fluoro-3-methyl-4-((1-methyl-1H-benzo[d][1,2,3]triazol-5-yl)oxy)phenyl)amino)pyrimido [5,4-d]pyrimidin-2-yl)azetidin-3-yl)-N-methylacrylamide], the half-maximal inhibitory concentration (IC50) in assay [1] and in assay [2] was 0.1 to 0.5 µM in each case.

As a reminder, the IC50 is the concentration needed to halve the response being measured. Lower therefore signals higher potency.
